According to paper PMC7558535, “In Vitro Metabolism of DWP16001, a Novel Sodium-Glucose Cotransporter 2 Inhibitor, in Human and Animal Hepatocytes” (Pharmaceutics, 2020):

Key:
Format in all cases: in vitro ADME
CYP2C19 = target: T1, CYP2C19 (Homo sapiens, UniProt P33261); assay: Enzyme kinetics of metabolite formation in cDNA-expressed CYP2C19 supersomes
T1 construct: purchased Corning Life Sciences
Procedure: To calculate the enzyme kinetic parameters for the M1 and M2 formation from DWP16001, DWP16001 (final concentrations, 1–200 μM) was incubated with NADPH-generating system, pooled human liver microsomes (0.25 mg/mL), or human cDNA-expressed CYP3A4 or CYP2C19 supersomes (10 pmol) at 37 °C for 30 min in triplicate. Reactions were stopped by addition of 400 μL of ice-cold ketoconazole (200 ng/mL) in acetonitrile. Following vortex-mixing and centrifugation (15,000× g, 8 min, 4 °C), 75 μL aliquots of the supernatant were diluted with 75 µL of 30% acetonitrile; 5 μL aliquots were injected into an LC−MS/MS system.
Apparent kinetic parameters (Km, Vmax and n) for the formation of M1, M2, and M3 from DWP16001 by human liver microsomes, CYP3A4, or CYP2C19 were calculated as follows: the unweighted formation rates of M1, M2, and M3 over a range of DWP16001 concentrations were fitted to the Hill equation model [V = Vmax × S^n/(Km^n + S^n)] or the single enzyme model [V = Vmax × S/(Km + S)] using Enzyme Kinetics software (version 1.1 SPSS Inc., Chicago, IL, USA). In the above equations, V means the reaction velocity of the formation of M1, M2, and M3 at given concentration [S] of DWP16001, Vmax means the maximum reaction velocity, n means the Hill constant, and Km means the DWP16001 concentration at which the reaction velocity is 50% of Vmax.

CYP3A4 = target: T2, CYP3A4 (Homo sapiens, UniProt P08684); assay: CYP screening, recombinant CYP3A4
T2 construct: purchased Corning Life Sciences
Procedure: DWP16001, M1, or M2 was incubated with 11 human cDNA-expressed CYP enzymes (1A1, 1A2, 2A6, 2B6, 2C8, 2C9, 2C19, 2D6, 2E1, 3A4, and 3A5) to identify the CYP enzymes involved in the metabolism of DWP16001. Reaction mixtures of 95 µL containing DWP16001 (final concentration: 5 µM), M1 or M2 (final concentration: 10 µM), and CYPs (final amount: 10 pmol) were prepared in 0.1 M potassium phosphate buffer (pH 7.4). The reaction was started by adding 5 µL of NADPH-generating system; the mixtures were incubated for 30 min at 37 °C in triplicate. Reactions were stopped by the addition of 400 µL of ice-cold ketoconazole (internal standard, 200 ng/mL) in ice-cold acetonitrile. Samples were centrifuged at 15,000× g for 8 min at 4 °C. Seventy-five microliter aliquots of the supernatants were diluted with 75 µL of deionized water and analyzed using an LC–MS/MS system.

UGT1A4 = target: T3, UGT1A4 (Homo sapiens, UniProt P22310); assay: UGT screening, cDNA-expressed UGT1A4
T3 construct: purchased Corning Life Sciences
T3 sequence (P22310 29-534): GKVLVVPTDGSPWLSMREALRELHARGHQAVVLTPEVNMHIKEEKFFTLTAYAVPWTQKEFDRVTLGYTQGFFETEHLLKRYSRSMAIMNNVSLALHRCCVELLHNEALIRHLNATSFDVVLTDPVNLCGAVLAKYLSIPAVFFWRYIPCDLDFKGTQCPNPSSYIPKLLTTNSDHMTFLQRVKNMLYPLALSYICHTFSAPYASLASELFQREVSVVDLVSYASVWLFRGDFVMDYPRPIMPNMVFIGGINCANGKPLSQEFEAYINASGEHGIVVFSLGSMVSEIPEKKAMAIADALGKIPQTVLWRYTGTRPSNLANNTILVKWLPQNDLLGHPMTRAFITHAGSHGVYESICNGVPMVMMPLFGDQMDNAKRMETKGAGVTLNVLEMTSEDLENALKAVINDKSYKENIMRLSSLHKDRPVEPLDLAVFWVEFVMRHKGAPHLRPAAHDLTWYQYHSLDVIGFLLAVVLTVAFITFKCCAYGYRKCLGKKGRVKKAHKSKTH
Procedure: (§1) To screen for UGT enzymes responsible for glucuronidation of DWP16001, 100 μL of reaction mixtures containing 13 human cDNA-expressed UGT enzymes (1A1, 1A3, 1A4, 1A6, 1A7, 1A8, 1A9, 1A10, 2B4, 2B7, 2B10, 2B15, and 2B17) at 0.1 mg protein/mL, 5 mM UDPGA, 0.025 mg/mL alamethicin, and 25 μM DWP16001 or M1 in 50 mM Tris buffer (pH 7.4) were incubated at 37 °C for 30 min in triplicate. Reactions were stopped by adding 100 μL of ketoconazole (internal standard, 200 ng/mL) in acetonitrile, followed by vortex-mixing and centrifugation (15,000× g, 8 min, 4 °C). The supernatant (75 μL) was diluted with equal volume of 30% acetonitrile and aliquots (5 μL) were injected into an LC-MS/MS system.

13 human UGT enzymes = assay: UGT screening, whole panel; conditions: incubation of DWP16001 with 13 human UGT enzymes, UDPGA
Procedure: as §1

[1] = CYP2C19 supersomes, kinetic model fitted

T1 sequence (P33261 whole entry): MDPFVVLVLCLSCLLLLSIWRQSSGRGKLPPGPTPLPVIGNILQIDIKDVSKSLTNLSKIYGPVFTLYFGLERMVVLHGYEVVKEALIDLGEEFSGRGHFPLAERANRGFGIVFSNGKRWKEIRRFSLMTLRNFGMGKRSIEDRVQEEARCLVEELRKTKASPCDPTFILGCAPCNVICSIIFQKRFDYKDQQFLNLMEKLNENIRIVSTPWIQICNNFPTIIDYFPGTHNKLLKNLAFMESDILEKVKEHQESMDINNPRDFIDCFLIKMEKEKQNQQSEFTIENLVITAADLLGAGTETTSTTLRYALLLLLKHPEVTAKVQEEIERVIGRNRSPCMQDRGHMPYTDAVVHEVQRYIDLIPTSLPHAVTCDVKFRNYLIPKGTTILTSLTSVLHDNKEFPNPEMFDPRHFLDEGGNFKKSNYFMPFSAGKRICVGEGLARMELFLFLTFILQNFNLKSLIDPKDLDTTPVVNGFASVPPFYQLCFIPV
T2 sequence (P08684 whole entry): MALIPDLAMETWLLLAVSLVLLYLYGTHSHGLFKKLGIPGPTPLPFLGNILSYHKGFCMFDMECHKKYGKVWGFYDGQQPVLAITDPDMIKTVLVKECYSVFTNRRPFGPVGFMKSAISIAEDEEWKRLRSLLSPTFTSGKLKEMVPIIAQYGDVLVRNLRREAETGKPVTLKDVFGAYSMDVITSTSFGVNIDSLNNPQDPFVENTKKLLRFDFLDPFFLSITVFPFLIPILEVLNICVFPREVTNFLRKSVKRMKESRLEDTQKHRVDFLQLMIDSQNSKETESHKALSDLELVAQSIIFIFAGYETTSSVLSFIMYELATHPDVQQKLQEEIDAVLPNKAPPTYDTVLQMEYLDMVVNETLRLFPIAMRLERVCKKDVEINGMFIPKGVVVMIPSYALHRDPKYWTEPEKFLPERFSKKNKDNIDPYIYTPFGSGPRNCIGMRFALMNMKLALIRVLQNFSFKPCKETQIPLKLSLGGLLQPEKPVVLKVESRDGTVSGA

OC[C@H]1O[C@@H](c2cc(Cc3ccc(C4CC4)cc3)c(Cl)c3c2CCO3)[C@H](O)[C@@H](O)[C@@H]1O [DWP16001, (2S,3R,4R,5S,6R)-2-(7-chloro-6-(4-cyclopropylbenzyl)-2,3-dihydrobenzofuran-4-yl)-6-(hydroxymethyl)tetrahydro-2H-pyran-3,4,5-triol]
M3 formation from DWP16001 in enzyme kinetic analysis (CYP2C19; CYP2C19): not detected
M1 Formation Mode (CYP2C19; [1]): Single enzyme
M2 Formation Mode (CYP2C19; [1]): Hill
Substrate of CYP3A4 (CYP3A4): substrate
Substrate of UGT1A4 (UGT1A4): substrate
Formation of U3 from DWP16001 (13 human UGT enzymes): not formed
